Data published in ChEMBL document CHEMBL3244327, “Benzomorphans. Structure of a position isomer” (J Med Chem, 1978).
The source made the active and inactive calls. The calls are words filed in the database; no cut-off is given here.

Legend:
Mus musculus = assay: Analgesic activity in sc dosed mouse assessed as inhibition of acetylcholine bromide-induced writhing after 2 mins; assay type: functional
Rattus norvegicus [1] = assay: Narcotic antagonist activity in sc dosed rat assessed as dose required for 50% antagonist activity co-treated with meperidine; assay type: functional
Rattus norvegicus [2] = assay: Narcotic antagonist activity in rat assessed as dose required for 50% antagonist activity at 10 mg/kg, sc co-treated with meperidine; assay type: functional, organism-based; parameters: dose 10 mg/kg
Rattus norvegicus [3] = assay: Toxicity in rat at 80 mg/kg, sc; assay type: organism-based; parameters: dose 80 mg/kg, route subcutaneous; settings: in vivo
Rattus norvegicus [4] = assay: Narcotic antagonist activity in rat assessed as dose required for 50% antagonist activity at 80 mg/kg, sc co-treated with meperidine; assay type: functional, organism-based; parameters: dose 80 mg/kg

Compound | ED50 (Mus musculus) [mg/kg] | AD50 (Rattus norvegicus [1]) [mg/kg] | also measured
CC1CN(C)C2Cc3ccc(O)cc3[C@@]1(C)C2 (some centres undefined) | 2.9 | – | –
CC[C@@]12CC(Cc3ccc(O)cc31)N(CC=C(C)C)CC2C (some centres undefined) | – | >40 | –
CC1CN(Cc2ccccc2)C2Cc3ccc(O)cc3[C@@]1(C)C2 (some centres undefined) | 8.5 | – | Activity (Rattus norvegicus [2]): inactive; Activity (Rattus norvegicus [3]): Toxic
C[C@H]1C2Cc3ccc(O)cc3[C@@]1(C)CCN2C | 0.54 | – | –
CCC1CN(C)C2Cc3ccc(O)cc3[C@@]1(C)C2 (some centres undefined) | 20 | 9 | –
CC(C)=CCN1CC[C@@]2(C)c3cc(O)ccc3C[C@@H]1[C@@H]2C (relative stereo) | 2.2 | 3.9 | –
CN1CC[C@]23c4c5ccc(O)c4O[C@H]2[C@@H](O)C=C[C@H]3[C@H]1C5 [MORPHINE] | 0.47 | – | Activity (Rattus norvegicus [1]): inactive
CC[C@@]12CCN(CC=C(C)C)C(Cc3ccc(O)cc31)[C@@H]2C | 2.1 | 10.9 | –
C=CCN1CC(C)[C@]2(CC)CC1Cc1ccc(O)cc12 (some centres undefined) | 10 | 0.037 | –
C=CCN1CC[C@]2(CC)c3cc(O)ccc3CC1[C@@H]2C | 0.23 | 0.064 | –
C[C@H]1C2Cc3ccc(O)cc3[C@@]1(C)CCN2Cc1ccccc1 | 23 | 1.3 | –
CC(C)=CCN1C[C@@H](C)[C@]2(C)C[C@@H]1Cc1ccc(O)cc12 | 29 | 2.8 | –
CC[C@H]1C2Cc3ccc(O)cc3[C@@]1(C)CCN2C | 1.1 | – | Activity (Rattus norvegicus [4]): inactive
